Laboratory results reported in patent US11952375B2, “Crystalline forms of Mnk inhibitors” (eFFECTOR Therapeutics Inc., priority 2018, dated 2024).

Columns and labels:
[1] = Solubility noted during palladium scavenging work; assay type: physicochemical; details: qualitative; precluded use of common solid-supported palladium scavenging agents
[2] = Kinetic slurry study of the free base in various solvent systems; XRPD and equilibrium solubilities give relative polymorph stability; assay type: physicochemical; details: slurries in various solvent systems, temperatures and water amounts; solids isolated at 2, 4, 6, 24, 72 hours
Procedure: For example, the free base of (5) was slurried at ambient temperature in various solvent systems, at various temperatures, with varying amounts of water. In each solvent condition, solids were isolated for XRPD analysis at 2, 4, 6, 24, and 72 hours. Equilibrium solubilities in these solvents were then calculated and used to identify ethanol for the final slurry step. The difference in free energy between solid phases with the same composition (i.e., polymorphs, hydrates, or solvates) is directly proportional to their relative solubilities.

| Compound | solubility [1] | thermodynamic stability of polymorph [2] |
| --- | --- | --- |
| Cc1cc(Nc2cc(N)ncn2)c(=O)n2c1C(=O)NC21CCCCC1 [Compound 5, 6′-((6-aminopyrimidin-4-yl)amino)-8′-methyl-2′H-spiro[cyclohexane-1,3′-imidazo[1,5-a]pyridine]-1′,5′-dione] | Low |  |
| Cc1cc(Nc2cc(N)ncn2)c(=O)n2c1C(=O)NC21CCCCC1 [Form A, 6′-((6-aminopyrimidin-4-yl)amino)-8′-methyl-2′H-spiro[cyclohexane-1,3′-imidazo[1,5-a]pyridine]-1′,5′-dione] |  | most thermodynamically stable polymorph |
